According to patent publication US20250215071A1, “Novel Mcl-1 inhibitor and combination of Mcl-1 and a BH3 mimetic, such as a Bcl-2 inhibitor” (NETRIS PHARMA, priority 2022, published 2025):
Residues, ends and D or L forms follow the SMILES beside them. *: point of attachment. Cbz = O=C(OCc1ccccc1)*

Assays:
Format in all cases: cell-based, Human
HeLa UNC5B cells = assay: UNC5B-induced DNA fragmentation in HeLa UNC5B cells; conditions: doxycycline-induced UNC5B; 18 hours
Experimental: FIG. 2. CRISPR-Cas9 screening identifies genes and molecular pathways involved in UNC5B-induced cell death. Related to FIG. 1. (A): UNC5B induction upon treatment with doxycycline. Stable HCT116 cells, inducible for UNC5B, were treated with the indicated concentrations of doxycycline (Dox). 24 hours later, protein levels of FLAG-UNC5B and GAPDH, used as housekeeping gene, were assessed by western blot. (B): UNC5B induction upon treatment with doxycycline on Hela cells. Stable Hela cells inducible for UNC5B (HeLa UNC5B) were treated with the indicated doses of Dox for 18 hours. Protein levels of His-UNC5B and β-actin, used as housekeeping gene, were measured by western blot. (C,D,E): Induction of UNC5B triggers apoptotic cell death in HCT116 cells. Stable HCTT16 cells inducible for human UNC5B were treated with Dox. To assess cell death, propidium iodide (PI) incorporation was followed in real-time up to 36 hours, using an Incucyte Zoom technology (n=3, ** p<0.01, Kolmogorov Smirnov test) (C). Apoptosis was assessed 18 hours after Dox treatment by DNA fragmentation through flow cytometry ([…] (D) and by caspase-3 activity (E), quantified by fluorometric detection kit (n=3, *p<0.05, ** p<0.01, *** p<0.001, Ordinary two-way ANOVA). Values are given as means±SEM. (F): Caspase inhibition rescues apoptosis triggered by UNC5B. HeLa UNC5B cells were treated with Dox and the pan-caspase inhibitor […] (QVD). 18 hours later, DNA fragmentation was evaluated by flow cytometry (n=3, **** p<0.0001, ordinary two-way ANOVA with Šidák's multiple comparisons test). Values are given as means±SEM. […] The number of guides showing an increase in reads compared to control condition is shown for each gene.
FIG. 4. […] 18 hours after treatment, apoptosis was measured by DNA fragmentation (A) and caspase-3 activity (B) (n=3-4, **** p<0.0001, ordinary two-way ANOVA with Tukey's multiple comparisons test). […] Protein levels of Mcl-1, Bcl-2 and Bcl-XL, as well as of UNC5B and B-actin, used as housekeeping gene, were evaluated by western blot. […]

caspase-3 = assay: UNC5B-induced caspase-3 activity in HeLa UNC5B cells; conditions: doxycycline 2 μg/mL; 18 hours
Experimental: Caspase-3 and -9 activity assays were performed as described previously (Paradisi et al., 2013; Paradisi et al., 2009). Briefly, HCT116 and HeLa cells were seeded and treated as for DNA fragmentation assay. Cells were then collected and caspase-3/caspase 9 activity assays were performed using the Caspase-3/Caspase-9 Fluorometric Assay Kit (BioVision, Milpitas, CA, USA), according to the manufacturer's instructions. Caspase activity (activity/min/mg of protein) was calculated from a 1 h kinetic cycle reading on a spectrofluorometer (405 nm/510 nm, Infinite F500, Tecan, Männedorf, Switzerland).

caspase-9 = assay: UNC5B-induced caspase-9 activity in HeLa UNC5B cells; conditions: Dox; 18 hours
Experimental: FIG. 5. UNC5B-mediated Mcl-1 degradation induces MOMP and caspase-9 activation. (A): UNC5B over-expression triggers Mitochondrial Outer Membrane Permeabilization (MOMP) in a COMMD2/CRL3 complex-dependent manner. Hela cells were transfected with scramble (siCTRL), COMMD2 (siCOMMD2-1) or RBX1 (siRBX1-1) siRNAs. 24 hours after transfection, cells were treated with Dox and after further 18 hours mitochondrial depolarization quantified by 5′,6,6′-tetrachloro-1,1′,3,3′-tetraethylbenzimi-dazolylcarbocyanine iodide (JC-1) dye staining, using NucleoCounter NC3000 (n=3, **** p<0.0001, ordinary two-way ANOVA with Tukey's multiple comparisons test). Values are given as means±SEM. (B,C,D): Apoptotic cell death induced by UNC5B over-expression requires caspase-9. HeLa UNC5B cells were transfected with scramble (siCTRL) or caspase-9 (siCASP9) siRNAs and 24 hours later treated with the indicated concentrations of Dox. Propidium iodide (PI)-positive cells were assessed in real-time up to 48 hours using Incucyte Zoom instrument (C) (n=[…], Kolmogorov-Smirnov test). DNA fragmentation was assessed by FACS analysis (D) and caspase-3 was measured using caspase-3 fluorometric kit (E), both 18 hours after treatment (n=[…], **** p<0.0001, ordinary two-way ANOVA with Šidák's multiple comparisons test). Values are given as means±SEM. […] HeLa UNC5B cells were treated with Dox and 18 hours later caspase-9 and -8 activities were assessed by fluorometric kit, using specific substrates (n=3, ^nsp>0.05, *p<0.05, Mann-Whitney test, one-tailed). […] 24 hours later, cells were treated with Dox and caspase-9 activity was measured by fluorometric kit (n=3, **** p<0.0001, ordinary two-way ANOVA with Tukey's multiple comparisons test). […] 18 hours after treatment, caspase-9 activity was assessed with the fluorometric kit (n=5, *p<0.05, ** p<0.01, *** p<0.001, **** p<0.0001, ordinary two-way ANOVA with Tukey's multiple comparisons test). […] Cells were then treated with Dox and Mcl-1 protein was evaluated by western blot. […]

Mcl-1 = Mcl-1 protein levels by western blot in HeLa UNC5B cells; conditions: endogenous Mcl-1; 2 μg/mL Dox; BTZ 1 μM, QVD 10 µM; 16 hours
Experimental: FIG. 4. UNC5B triggers proteasomal degradation of Mcl-1. (A,B): UNC5B-induced apoptosis requires proteasome activity. Stable Hela cells inducible for UNC5B (HeLa UNC5B) were treated with doxycycline (Dox) at 2 μg/mL, in combination with the indicated doses of the proteasome inhibitors MG132 and bortezomib (BTZ). 18 hours after treatment, apoptosis was measured by DNA fragmentation (A) and caspase-3 activity (B) (n=3-4, **** p<0.0001, ordinary two-way ANOVA with Tukey's multiple comparisons test). Values are given as means±SEM Treatment with proteasome inhibitors was sufficient to strongly reduce apoptosis induction upon UNC5B over-expression. (C): UNC5B triggers Mcl-1 degradation. HeLa UNC5B cells were treated with 2 μg/mL of Dox, in combination with bortezomib (BTZ, 1 μM) and the pan-caspase inhibitor Q-VD-OPh (QVD, 10 µM) inhibitors. 16 hours after treatment, cells were lysed by scraping and sonication in SDS-containing buffer. Protein levels of Mcl-1, Bcl-2 and Bcl-XL, as well as of UNC5B and B-actin, used as housekeeping gene, were evaluated by western blot. […] UNC5B over-expression specifically promoted Mcl-1 protein decrease. […] (D): Mcl-1 degradation induced by UNC5B requires COMMD2/CRL3 complex. HeLa UNC5B cells were transfected with scramble (siCTRL), COMMD2 (siCOMMD2) or RBX1 (siRBX1) siRNAs. […] Protein levels of Mcl-1, UNC5B and Ku80, used as housekeeping protein, were evaluated by western blot. […] Stable HeLa UNC5B cells, constitutively expressing Mcl-1 or empty vector, were treated with doxycycline and apoptosis was evaluated 18 hours later by DNA fragmentation (n=3, ^nsp>0.05, ordinary two-way ANOVA with Sidak's multiple comparisons test). […] Stable HeLa UNC5B cells, constitutively expressing Mcl-1, Bcl-2 or Bcl-XL were treated with Dox and protein levels were evaluated as described in (C). […] 18 hours later, protein levels of Mcl-1, UNC5B and β-actin, used as housekeeping gene, were evaluated by western blot. […] Cells were harvested at the indicated times after CHX treatment, and protein levels were assessed by western blot. […]

| Structure (SMILES) | UNC5B-induced apoptosis (DNA fragmentation) (HeLa UNC5B cells) | UNC5B-induced caspase-3 activation (caspase-3) | UNC5B-induced caspase-9 activation (caspase-9) | Mcl-1 protein levels / degradation triggered by UNC5B (Mcl-1) |
| --- | --- | --- | --- | --- |
| CC(C)C[C@@H](C=O)NC(=O)[C@H](CC(C)C)NC(=O)[C@H](CC(C)C)NC(=O)OCc1ccccc1 [MG132] (Cbz-Leu-Leu-Leu-aldehyde) | suppressed | suppressed | sufficient to prevent UNC5B-induced caspase-9 activation |  |
| CC(C)[C@H](NC(=O)c1ccc2ccccc2n1)C(=O)N[C@@H](CC(=O)O)C(=O)COc1c(F)cccc1F [Q-VD-OPh] | completely prevented apoptosis induction |  |  | not sufficient to prevent Mcl-1 degradation |
